# Test results reported in patent US20250257034A1, “INDOLE DERIVATIVES AS SEROTONERGIC AGENTS USEFUL FOR THE TREATMENT OF DISORDERS RELATED THERETO” (priority 2023, published 2025).
# Where two headings read alike, the source gives them in different places.
# Columns and labels:
# [1] = Pharmacokinetic studies in rat (i.v.); type: in vivo; conditions: dose 1.37 mg/kg (I-71, I-128), 1.33 mg/kg ((S) I-67); for concentration at 0.25 h / concentration at 1 h / AUC(0-t) / half-life: male, Sprague-Dawley, rat, plasma; for concentration at 0.25 h / concentration at 1 h: intravenous; for concentration at 0.25 h / concentration at 1 h / Plasma concentration: rat i.v.; for AUC(0-t) / half-life: iv, rat plasma, i.v.; for half-life: estimated from 2 points only; for Plasma concentration: 4 h
# Description: Animals: Male Sprague-Dawley rats (˜225-350 g) from Charles River Labs were acclimatized for a minimum of 5 days prior to start of study procedures. Body weights were recorded on the day of dosing.
# Any abnormalities were documented including presence/absence of wet dog shakes/back muscle contractions (WDS/BMC).
# Dosing: Formulations were administered intravenously (i.v.) via the tail vein using a 25 G needle connected to a 1 cc syringe.
# The Compounds of Formula (I) were freshly prepared at the appropriate concentrations in 5% Tween-80 in saline.
# Blood collection time (h): 0.25, 1 and 4.
# Volume/time-point: ˜0.25 mL […] (saphenous vein).
# Instrumentation: AB Sciex QTRAP 4000 or 6500 MS/MS system equipped with an LC system with a binary pump, a solvent degasser, a thermostatted column compartment and a multiplate autosampler.
# Analysis software: Phoenix® WinNonlin® 8.3 (Pharsight, Certara, Mountainview, CA).
# Analysis methods: non-compartmental analysis, linear up/log down trapezoidal rule.
# PK parameters: t1/2 and AUC0-tlast were be estimated.
# Volume/time-point: ˜0.25 mL (saphenous vein).
# PK parameters: t1/2 and AUC0-tlast were estimated.
# [2] = Mouse liver microsomes stability; type: in vitro ADME; conditions: mouse liver microsomes
# Description: (§1) The objective of this study was to estimate in vitro metabolic stability of exemplary compounds of Formula (I) or a pharmaceutically acceptable salt, solvate, and/or prodrug thereof in pooled human, male rat, and male mouse liver microsomes. The concentrations of compounds in reaction systems were evaluated by LC-MS/MS for estimating the stability in pooled human, male rat, and male mouse liver microsomes. The in vitro intrinsic clearances of test compounds were determined as well.
# (§2) A master solution in the “Incubation Plate” containing phosphate buffer, ultra-pure H2O, MgCl2 solution and liver microsomes was made according to Table 33. The mixture was pre-warmed at 37° C. water bath for 5 minutes.
# (§3) 40 μL of 10 mM nicotinamide adenine dinucleotide phosphate (NADPH) solution was added to each well. The final concentration of NADPH was 1 mM. The negative control samples were prepared by replacing NADPH with 40 μL of ultra-pure H2O. Samples were prepared in duplicate. Negative controls were prepared in singlet.
# (§4) The reaction was started with the addition of 4 μL of 200 μM exemplary test compounds of the disclosure or control compounds to each master solution to get the final concentration of 2 μM. This study was performed in duplicate.
# (§5) Aliquots of 50 μL were taken from the reaction solution at 0, 15, 30, 45, and 60 minutes. The reaction solutions were stopped by the addition of 4 volumes of cold methanol with IS (100 nM alprazolam, 200 nM imipramine, 200 nM labet alol and 2 μM ketoprofen). Samples were centrifuged at 3,220 g for 40 minutes. Aliquot of 90 μL of the supernatant was mixed with 90 μL of ultra-pure H2O and then was used for LC-MS/MS analysis.
# (§6) LC/MS analysis was performed for all samples from this study using a Shimadzu liquid chromatograph separation system equipped with degasser DGU-20A5R; solvent delivery unit LC-30AD; system controller SIL-30AC; column oven CTO-30A; CTC Analytics HTC PAL System. Mass spectrometric analysis was performed using a Triple Quad™ 5500 instrument.
# (§7) All calculations were carried out using Microsoft Excel. Peak area ratios of test compound to internal standard (listed in the below table) were determined from extracted ion chromatograms.
# (§8) All calculations were carried out using Microsoft Excel. Peak areas were determined from extracted ion chromatograms. The slope value, k, was determined by linear regression of the natural logarithm of the remaining percentage of the parent drug vs. incubation time curve.
# (§9) The in vitro half-life (in vitro t1/2) was determined from the slope value:
# (§10) Conversion of the in vitro t1/2(min) into the in vitro intrinsic clearance (in vitro CLint, in μL/min/mg proteins) was done using the following equation (mean of duplicate determinations): […]
# (§11) A master solution in the “Incubation Plate” containing phosphate buffer, ultra-pure H2O, MgCl2 solution and liver microsomes was made according to Table 63. The mixture was pre-warmed at 37° C. water bath for 5 minutes.
# (§12) 40 μL of 10 mM NADPH solution was added to each well. The final concentration of NADPH was 1 mM. The negative control samples were prepared by replacing NADPH with 40 μL of ultra-pure H2O. Samples were prepared in duplicate. Negative controls were prepared in singlet.
# (§13) Conversion of the in vitro t1/2(min) into the in vitro intrinsic clearance (in vitro C Lt, in μL/min/mg proteins) was done using the following equation (mean of duplicate determinations): […]
# [3] = Human liver microsomes stability; type: in vitro ADME; conditions: human liver microsomes
# Description: as §1, §2, §3, §4, §5, §6, §7, §8, §9, §10, §11, §12, §13
# [4] = first individual rat (R01/R04), read-out: Plasma concentration
# [5] = mean of 3 rats, read-out: Plasma concentration, Mean ± SD
# [6] = second individual rat (R02/R05), read-out: Plasma concentration
# [7] = third individual rat (R03/R06), read-out: Plasma concentration
structure (smiles),measurement,setting,value
"CN(C)CCc1c[nH]c2ccc(OCCOC(F)F)cc12 [Compound I-128, 2-(5-(2-(Difluoromethoxy)ethoxy)-1H-indol-3-yl)-N,N-dimethylethan-1-amine]",concentration at 0.25 h,[1]; [4],146 ng/mL
same,concentration at 0.25 h,[1]; [5],138 ± 9.07 ng/mL
same,concentration at 0.25 h,[1]; [6],128 ng/mL
same,concentration at 0.25 h,[1]; [7],139 ng/mL
same,concentration at 1 h,[1]; [4],19 ng/mL
same,concentration at 1 h,[1]; [5],15.2 ± 3.32 ng/mL
same,concentration at 1 h,[1]; [6],13.1 ng/mL
same,concentration at 1 h,[1]; [7],13.4 ng/mL
same,AUC(0-t),"[1]; first individual rat (R01/R04), read-out: AUC0-tlast",99 ng·h/mL
same,half-life,"[1]; first individual rat (R01/R04), read-out: Apparent t1/2 (converted)",15.3 min
same,AUC(0-t),"[1]; mean of 3 rats, read-out: AUC0-tlast, Mean ± SD",92.5 ± 6.63 ng·h/mL
same,half-life,"[1]; mean of 3 rats, read-out: Apparent t1/2, Mean ± SD (converted)",14.1 ± 1.04 min
same,AUC(0-t),"[1]; second individual rat (R02/R05), read-out: AUC0-tlast",85.7 ng·h/mL
same,half-life,"[1]; second individual rat (R02/R05), read-out: Apparent t1/2 (converted)",13.7 min
same,AUC(0-t),"[1]; third individual rat (R03/R06), read-out: AUC0-tlast",92.9 ng·h/mL
same,half-life,"[1]; third individual rat (R03/R06), read-out: Apparent t1/2 (converted)",13.3 min
same,Plasma concentration,[1]; first individual rat (R01/R04),No Peak
same,Plasma concentration,[1]; second individual rat (R02/R05),No Peak
same,Plasma concentration,[1]; third individual rat (R03/R06),No Peak
same,microsomal CLint at 2 μM,"[2]; male, mouse, pooled liver microsomes, 2 μM compound, 0.5 mg/mL, read-out: CLint (μL/min/mg protein)",66.7 µL/min/mg
same,half-life at 2 μM,"[2]; male, pooled liver microsomes, 2 μM compound, 0.5 mg/mL",20.8 min
same,CLint scaled at 2 μM,"[2]; male, pooled liver microsomes, read-out: Scaled-up CLint",292 mL/min/kg
same,Predicted hepatic CL,[2],68.78 mL/min/kg
same,Remaining Percentage (%),"[2]; With Cofactors, 0 min",100.00%
same,Remaining Percentage (%),"[2]; With Cofactors, 30 min",37.09%
same,Remaining Percentage (%),"[2]; With Cofactors, 60 min",13.52%
same,Remaining Percentage (%),"[2]; Without Cofactors, 0 min",100.00%
same,Remaining Percentage (%),"[2]; Without Cofactors, 30 min",89.52%
same,Remaining Percentage (%),"[2]; Without Cofactors, 60 min",87.90%
same,Predicted hepatic CL,[3],16.28 mL/min/kg
same,half-life at 2 μM,"[3]; 2 μM compound, 0.5 mg/mL",22.8 min
same,microsomal CLint at 2 μM,"[3]; 2 μM compound, 0.5 mg/mL, read-out: CLint (μL/min/mg protein)",60.8 µL/min/mg
same,Remaining Percentage (%),"[3]; With Cofactors, 0 min",100.00%
same,Remaining Percentage (%),"[3]; With Cofactors, 30 min",41.35%
same,Remaining Percentage (%),"[3]; With Cofactors, 60 min",16.15%
same,Remaining Percentage (%),"[3]; Without Cofactors, 0 min",100.00%
same,Remaining Percentage (%),"[3]; Without Cofactors, 30 min",39.57%
same,Remaining Percentage (%),"[3]; Without Cofactors, 60 min",16.12%
same,CLint scaled at 2 μM,[3]; read-out: Scaled-up CLint,76.2 mL/min/kg
